# Measurements published in patent US20250018046A1, “COMPOUNDS FOR TARGETING DEGRADATION OF IRAK4 PROTEINS” (BIOGEN MA INC, priority 2021, published 2025).
# Target: T1, IRAK4 (Homo sapiens, UniProt Q9NWZ3)
# T1 construct: knocking-in a HiBiT fusion tag into the C-terminal of the IRAK4 gene in 293T cells; host or cells: 293T cells, knock-in of HiBiT at the endogenous IRAK4 locus
# T1 sequence (Q9NWZ3 1-460): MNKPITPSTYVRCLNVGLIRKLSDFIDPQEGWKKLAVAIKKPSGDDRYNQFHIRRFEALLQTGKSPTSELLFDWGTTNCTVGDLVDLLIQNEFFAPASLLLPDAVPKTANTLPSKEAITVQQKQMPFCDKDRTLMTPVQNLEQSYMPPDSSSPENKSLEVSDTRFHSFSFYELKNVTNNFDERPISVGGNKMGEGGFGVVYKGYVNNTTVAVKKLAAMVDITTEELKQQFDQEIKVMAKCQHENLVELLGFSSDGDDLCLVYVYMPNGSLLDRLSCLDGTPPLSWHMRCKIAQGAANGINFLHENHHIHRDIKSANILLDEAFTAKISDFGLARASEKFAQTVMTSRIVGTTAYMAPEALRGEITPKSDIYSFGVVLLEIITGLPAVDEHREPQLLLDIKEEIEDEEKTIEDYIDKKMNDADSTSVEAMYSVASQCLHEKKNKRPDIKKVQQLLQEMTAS
# Test: IRAK4 degradation assay using the HiBiT Method
# Type: cell-based
# Conditions: 293T cells expressing HiBiT-tagged IRAK4; 6-hour incubation; Nano-Glo HiBiT Lytic Assay luminescence
# In short: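 HEK293T cells with HiBiT knocked into the IRAK4 C-terminus, 10,000 cells per well, treated with an 11-point half-log series […] in duplicate for 6 hours at 37° C., 5% CO2. Remaining IRAK4 quantified by Nano-Glo HiBiT lytic luminescence against DMSO controls.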
row,DC50 [nM],SMILES
1,10 to 100,"CC(C)Oc1cc2nc(C3CCN(C(=O)CCN4CCC(c5ccc(NC6CCC(=O)NC6=O)cc5F)CC4)CC3)cn2cc1NC(=O)c1cccc(C(F)(F)F)n1 (centres unmarked) [Example 8, N-[2-[1-[3-[4-[4-[(2,6-dioxo-3-piperidyl)amino]-2-fluoro-phenyl]-1-piperidyl]propanoyl]-4-piperidyl]-7-isopropoxy-imidazo[1,2-a]pyridin-6-yl]-6-(trifluoromethyl)pyridine-2-carboxamide]"
2,100 to 500,"CC(C)Oc1cc2nc(CCCCCCN3CCC(c4ccc(NC5CCC(=O)NC5=O)cc4)CC3)cn2cc1NC(=O)c1cccc(C(F)(F)F)n1 (centres unmarked) [Example 72, N-[2-[6-[4-[4-[(2,6-dioxo-3-piperidyl)amino]phenyl]-1-piperidyl]hexyl]-7-isopropoxy-imidazo[1,2-a]pyridin-6-yl]-6-(trifluoromethyl)pyridine-2-carboxamide]"
3,100 to 500,"CC(C)Oc1cc2nc(C3CCN(C(=O)CN4CCN(c5ccc(C6CCC(=O)NC6=O)cc5)CC4)CC3)cn2cc1NC(=O)c1cccc(C(F)(F)F)n1 (centres unmarked) [Example 5, N-[2-[1-[2-[4-[4-(2,6-dioxo-3-piperidyl)phenyl]piperazin-1-yl]acetyl]-4-piperidyl]-7-isopropoxy-imidazo[1,2-a]pyridin-6-yl]-6-(trifluoromethyl)pyridine-2-carboxamide]"
4,10 to 100,"CC(C)Oc1cc2nc(C3CCN(CC(=O)N4CCN(c5cc6c(cc5F)c(N5CCC(=O)NC5=O)nn6C)CC4)CC3)cn2cc1NC(=O)c1cccc(C(F)(F)F)n1 [Example 18, N-(2-(1-(2-(4-(3-(2,4-dioxotetrahydropyrimidin-1(2H)-yl)-5-fluoro-1-methyl-1H-indazol-6-yl)piperazin-1-yl)-2-oxoethyl)piperidin-4-yl)-7-isopropoxyimidazo[1,2-a]pyridin-6-yl)-6-(trifluoromethyl)picolinamide]"
5,100 to 500,"CC(C)Oc1cc2nc(C3CCN(CC(=O)N4CCN(c5ccc(NC6CCC(=O)NC6=O)cc5)CC4)CC3)cn2cc1NC(=O)c1cccc(C(F)(F)F)n1 (centres unmarked) [Example 27, N-[2-[1-[2-[4-[4-[(2,6-dioxo-3-piperidyl)amino]phenyl]piperazin-1-yl]-2-oxo-ethyl]-4-piperidyl]-7-isopropoxy-imidazo[1,2-a]pyridin-6-yl]-6-(trifluoromethyl)pyridine-2-carboxamide]"
6,10 to 100,"CC(C)Oc1cc2nc(C3CCN(CCN4CCN(c5ccc(C6CCC(=O)NC6=O)cc5)CC4)CC3)cn2cc1NC(=O)c1cccc(C(F)(F)F)n1 (centres unmarked) [Example 65, N-[2-[1-[2-[4-[4-(2,6-dioxo-3-piperidyl)phenyl]piperazin-1-yl]ethyl]-4-piperidyl]-7-isopropoxy-imidazo[1,2-a]pyridin-6-yl]-6-(trifluoromethyl)pyridine-2-carboxamide]"
7,10 to 100,"CC(C)Oc1cc2nn(C3CCN(CC(=O)N4CCC(c5ccc(NC6CCC(=O)NC6=O)cc5)CC4)CC3)cc2cc1NC(=O)c1cccc(C(F)(F)F)n1 (centres unmarked) [Example 49, N-(2-(1-(2-(4-(4-((2,6-dioxopiperidin-3-yl)amino)phenyl)piperidin-1-yl)-2-oxoethyl)piperidin-4-yl)-6-isopropoxy-2H-indazol-5-yl)-6-(trifluoromethyl) picolinamide]"
8,100 to 500,"CC(C)Oc1cc2nc(C3CCN(CCN4CCC(c5ccc(NC6CCC(=O)NC6=O)cc5)CC4)CC3)cn2cc1NC(=O)c1cccc(C(F)(F)F)n1 (centres unmarked) [Example 66, N-[2-[1-[2-[4-[4-[(2,6-dioxo-3-piperidyl)amino]phenyl]-1-piperidyl]ethyl]-4-piperidyl]-7-isopropoxy-imidazo[1,2-a]pyridin-6-yl]-6-(trifluoromethyl)pyridine-2-carboxamide]"
9,10 to 100,"CC(C)Oc1cc2nc([C@H]3CC[C@H](CN(C)C4CCN(c5ccc(NC6CCC(=O)NC6=O)cc5)CC4)CC3)cn2cc1NC(=O)c1cccc(C(F)(F)F)n1 (some centres unmarked) [Example 36, N-[2-[4-[[[1-[4-[(2,6-dioxo-3-piperidyl)amino]phenyl]-4-piperidyl]-methyl-amino]methyl]cyclohexyl]-7-isopropoxy-imidazo[1,2-a]pyridin-6-yl]-6-(trifluoromethyl)pyridine-2-carboxamide]"
10,500 to 1000,"CC(C)Oc1cc2nc([C@@H](Cc3ccccc3)NC(=O)CN3CCC(c4ccc(C5CCC(=O)NC5=O)cc4)CC3)cn2cc1NC(=O)c1cccc(C(F)(F)F)n1 (stereo partly drawn) [Example 78, N-[2-[(1R)-1-[[2-[4-[4-(2,6-dioxo-3-piperidyl)phenyl]-1-piperidyl]acetyl]amino]-2-phenyl-ethyl]-7-isopropoxy-imidazo[1,2-a]pyridin-6-yl]-6-(trifluoromethyl)pyridine-2-carboxamide]"
11,100 to 500,"CC(C)Oc1cc2nc(C3CCN(CC(=O)N4CCC(c5cccc(NC6CCC(=O)NC6=O)c5F)CC4)CC3)cn2cc1NC(=O)c1cccc(C(F)(F)F)n1 (centres unmarked) [Example 13, N-[2-[1-[2-[4-[3-[(2,6-dioxo-3-piperidyl)amino]-2-fluoro-phenyl]-1-piperidyl]-2-oxo-ethyl]-4-piperidyl]-7-isopropoxy-imidazo[1,2-a]pyridin-6-yl]-6-(trifluoromethyl)pyridine-2-carboxamide]"
12,10 to 100,"CC(C)Oc1cn2cc(C3CCN(CC(=O)N4CCC(c5ccc(NC6CCC(=O)NC6=O)cc5)CC4)CC3)nc2cc1NC(=O)c1cccc(C(F)(F)F)n1 (single isomer, unassigned) [Example 15, N-[2-[1-[2-[4-[4-[[2,6-dioxo-3-piperidyl]amino]phenyl]-1-piperidyl]-2-oxo-ethyl]-4-piperidyl]-6-isopropoxy-imidazo[1,2-a]pyridin-7-yl]-6-(trifluoromethyl)pyridine-2-carboxamide]"
13,10 to 100,"CC(C)Oc1cc2nc(C3CCN(CC(=O)N4CCC(c5ccc(NC6CCC(=O)NC6=O)cc5)CC4)CC3)cn2cc1NC(=O)c1ccn(C)n1 (centres unmarked) [Example 60, N-[2-[1-[2-[4-[4-[(2,6-dioxo-3-piperidyl)amino]phenyl]-1-piperidyl]-2-oxo-ethyl]-4-piperidyl]-7-isopropoxy-imidazo[1,2-a]pyridin-6-yl]-1-methyl-pyrazole-3-carboxamide]"
14,100 to 500,"CC(C)Oc1cc2nc(C3CCC(CN4CCC(c5ccc6c(c5)n(C)c(=O)n6C5CCC(=O)NC5=O)CC4)CC3)cn2cc1NC(=O)c1cccc(C(F)(F)F)n1 (centres unmarked) [Example 47, N-[2-[4-[[4-[1-(2,6-dioxo-3-piperidyl)-3-methyl-2-oxo-benzimidazol-5-yl]-1-piperidyl]methyl]cyclohexyl]-7-isopropoxy-imidazo[1,2-a]pyridin-6-yl]-6-(trifluoromethyl)pyridine-2-carboxamide]"
15,100 to 500,"CC(C)Oc1cc2nc(CC3CN(C(=O)CN4CCC(c5ccc(C6CCC(=O)NC6=O)cc5)CC4)C3)cn2cc1NC(=O)c1cccc(C(F)(F)F)n1 (centres unmarked) [Example 74, N-[2-[[1-[2-[4-[4-(2,6-dioxo-3-piperidyl)phenyl]-1-piperidyl]acetyl]azetidin-3-yl]methyl]-7-isopropoxy-imidazo[1,2-a]pyridin-6-yl]-6-(trifluoromethyl)pyridine-2-carboxamide]"
16,100 to 500,"CC(C)Oc1cc2nc(C3CCN(CC(=O)N4CCC(c5ccc(NC6CCC(=O)NC6=O)cc5)CC4)CC3)cn2cc1NC(=O)c1ccncn1 (centres unmarked) [Example 53, N-[2-[1-[2-[4-[4-[(2,6-dioxo-3-piperidyl)amino]phenyl]-1-piperidyl]-2-oxo-ethyl]-4-piperidyl]-7-isopropoxy-imidazo[1,2-a]pyridin-6-yl]pyrimidine-4-carboxamide]"
17,100 to 500,"CC(C)Oc1cc2nc(C3CCN(C(=O)C4CC5(CCCN5C(=O)c5ccc(OC6CCC(=O)NC6=O)cc5)C4)CC3)cn2cc1NC(=O)c1cccc(C(F)(F)F)n1 (centres unmarked) [Example 80, N-[2-[1-[5-[4-[(2,6-dioxo-3-piperidyl)oxy]benzoyl]-5-azaspiro[3.4]octane-2-carbonyl]-4-piperidyl]-7-isopropoxy-imidazo[1,2-a]pyridin-6-yl]-6-(trifluoromethyl)pyridine-2-carboxamide]"
18,100 to 500,"CC(C)Oc1cc2nc(C3CCN(CCN4CCC(c5ccc(NC6CCC(=O)NC6=O)cc5F)CC4)CC3)cn2cc1NC(=O)c1cccc(C(F)(F)F)n1 (centres unmarked) [Example 67, N-[2-[1-[2-[4-[4-[(2,6-dioxo-3-piperidyl)amino]-2-fluoro-phenyl]-1-piperidyl]ethyl]-4-piperidyl]-7-isopropoxy-imidazo[1,2-a]pyridin-6-yl]-6-(trifluoromethyl)pyridine-2-carboxamide]"
19,10 to 100,"CC(C)Oc1cc2nc(CC3CCN(C(=O)CN4CCC(c5ccc(C6CCC(=O)NC6=O)cc5)CC4)CC3)cn2cc1NC(=O)c1cccc(C(F)(F)F)n1 (centres unmarked) [Example 79, N-[2-[[1-[2-[4-[4-(2,6-dioxo-3-piperidyl)phenyl]-1-piperidyl]acetyl]-4-piperidyl]methyl]-7-isopropoxy-imidazo[1,2-a]pyridin-6-yl]-6-(trifluoromethyl)pyridine-2-carboxamide]"
20,100 to 500,"CC(C)Oc1cc2nc(C3CCN(CCCCc4ccc(NC5CCC(=O)NC5=O)cc4)CC3)cn2cc1NC(=O)c1cccc(C(F)(F)F)n1 (centres unmarked) [Example 69, N-[2-[1-[4-[4-[(2,6-dioxo-3-piperidyl)amino]phenyl]butyl]-4-piperidyl]-7-isopropoxy-imidazo[1,2-a]pyridin-6-yl]-6-(trifluoromethyl)pyridine-2-carboxamide]"
